Biological target: hSA (Homo sapiens, UniProt P02768)
Experiment: hSA binding assay (hSA-coated microtiter plate, streptavidin-polyHRP/ABTS, OD 405 nm)
Details: for Bmax: given only for compounds with an Exp 2 value
Experimental: hSA binding assay. Microtiter 96 well plate is coated, overnight at 4° C., using […] of a solution of hSA in PBS ([…]). Plate is washed with PBS and blocked, for 1 hours, using 150 ml, per well, of a 10% solution of Tween 20 in water. After 1 hour the wells are washed with PBS. The hSA binders tested are dissolved in PBS, 100 ml of the tested solutions are then added in the well and incubated for 2 hours. After 2 hours, the solution are discarded and the wells are washed using PBS, 0.1% Tween 20. 100 ml of a solution of streptavidin-polyHRP in PBS 1.375% casein is added to the wells and incubated for 1 more hours. Finally wells are washed with PBS, 0.1% Tween 20, and 100 ml ABTS in phosphate-citrate buffer with sodium perborate is added. After a few minutes OD are read at 405 nm.
A plurality of compounds according to the invention were prepared. All of the compounds contained the Cys-Pro-Cys moiety. These compounds and an assay control were tested using the above procedure. Some compounds were tested twice (Exp 1 and Exp 2).

hSA, sequence (P02768 25-609): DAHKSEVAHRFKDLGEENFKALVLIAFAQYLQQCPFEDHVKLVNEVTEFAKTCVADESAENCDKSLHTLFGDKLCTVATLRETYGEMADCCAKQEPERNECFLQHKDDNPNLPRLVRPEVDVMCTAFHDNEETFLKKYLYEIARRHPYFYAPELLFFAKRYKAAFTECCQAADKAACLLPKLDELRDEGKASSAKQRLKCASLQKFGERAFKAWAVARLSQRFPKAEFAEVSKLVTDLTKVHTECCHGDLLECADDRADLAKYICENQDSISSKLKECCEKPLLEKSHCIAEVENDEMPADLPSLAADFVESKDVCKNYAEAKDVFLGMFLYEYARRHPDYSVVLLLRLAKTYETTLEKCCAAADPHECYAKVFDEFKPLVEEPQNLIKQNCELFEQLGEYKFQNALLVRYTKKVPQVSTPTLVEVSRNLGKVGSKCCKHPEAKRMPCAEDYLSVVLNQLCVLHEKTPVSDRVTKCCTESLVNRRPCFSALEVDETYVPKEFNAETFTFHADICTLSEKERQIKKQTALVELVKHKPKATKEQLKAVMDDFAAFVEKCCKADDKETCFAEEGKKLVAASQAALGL

Sequence | Binding, Exp 1 | Binding, Exp 2 | Bmax
RLIQDICPCLW [Compound 18, RLIQDI-LW, "-" represents cysteine-proline-cysteine] | 0.06261 |  | 
KLIEDECPCLW [Compound 11, KLIEDE-LW, "-" represents cysteine-proline-cysteine] | 0.04808 |  | 
RLIEDICPCFW [Compound 10, RLIEDI-FW, "-" represents cysteine-proline-cysteine] | 0.04544 |  | 
RVIEDICPCLW [Compound 19, RVIEDI-LW, "-" represents cysteine-proline-cysteine] | 0.06391 | 0.2112 | 1.089
RLEEDICPCLW [Compound 17, RLEEDI-LW, "-" represents cysteine-proline-cysteine] | 0.0625 |  | 
RLVEDICPCLW [Compound 20, RLVEDI-LW, "-" represents cysteine-proline-cysteine] | 0.06407 |  | 
KLQEDICPCLW [Compound 31, KLQEDI-LW, "-" represents cysteine-proline-cysteine] | 0.1033 |  | 
KFIEDICPCLW [Compound 13, KFIEDI-LW, "-" represents cysteine-proline-cysteine] | 0.04979 | 0.4961 | 1.198
RLIEDQCPCLW [Compound 16, RLIEDQ-LW, "-" represents cysteine-proline-cysteine] | 0.06092 |  | 
KLTEDICPCLW [Compound 24, KLTEDI-LW, "-" represents cysteine-proline-cysteine] | 0.07352 |  | 
KLIYDICPCLW [Compound 29, KLIYDI-LW, "-" represents cysteine-proline-cysteine] | 0.1014 | 0.09262 | 0.7912
RLTEDICPCLW [Compound 7, RLTEDI-LW, "-" represents cysteine-proline-cysteine] | 0.03902 |  | 
RLIEDTCPCLW [Compound 27, RLIEDT-LW, "-" represents cysteine-proline-cysteine] | 0.08956 |  | 
KTIEDICPCLW [Compound 22, KTIEDI-LW, "-" represents cysteine-proline-cysteine] | 0.06947 | 0.1476 | 1.427
KLIEDICPCLK [Compound 21, KLIEDI-LK, "-" represents cysteine-proline-cysteine] | 0.06947 |  | 
KLIEDICPCLH [Compound 23, KLIEDI-LH, "-" represents cysteine-proline-cysteine] | 0.07161 |  | 
KLIEEICPCLW [Compound 28, KLIEEI-LW, "-" represents cysteine-proline-cysteine] | 0.09642 |  | 
KLFEDICPCLW [Compound 33, KLFEDI-LW, "-" represents cysteine-proline-cysteine] | 0.1213 |  | 
RLIDDICPCLW [Compound 6, RLIDDI-LW, "-" represents cysteine-proline-cysteine] | 0.03897 | 0.2179 | 1.256
KLIEDICPCFW [Compound 30, KLIEDI-FW, "-" represents cysteine-proline-cysteine] | 0.1033 |  | 
RLIVDICPCLW [Compound 12, RLIVDI-LW, "-" represents cysteine-proline-cysteine] | 0.04895 | 0.2036 | 1.002
RLIENICPCLW [Compound 14, RLIENI-LW, "-" represents cysteine-proline-cysteine] | 0.05331 |  | 
RQIEDICPCLW [Compound 2, RQIEDI-LW, "-" represents cysteine-proline-cysteine] | 0.02306 | 0.2243 | 1.232
RFIEDICPCLW [Compound 8, RFIEDI-LW, "-" represents cysteine-proline-cysteine] | 0.04142 | 0.1971 | 1.136

Further lines, results first:

Binding, Exp 1 | Binding, Exp 2 | Bmax | Sequence
0.1635 |  |  | KLVEDICPCLW [Compound 41, KLVEDI-LW, "-" represents cysteine-proline-cysteine]
0.1404 |  |  | RLIKDICPCLW [Compound 36, RLIKDI-LW, "-" represents cysteine-proline-cysteine]
0.2709 |  |  | KLIEDICPCLE [Compound 49, KLIEDI-LE, "-" represents cysteine-proline-cysteine]
1.193 |  |  | RLIEDICPCQW [Compound 60, RLIEDI-QW, "-" represents cysteine-proline-cysteine]
0.2855 | 0.3359 | 1.14 | RLIEDICPCLW [Compound 50, RLIEDI-LW, "-" represents cysteine-proline-cysteine]
 | 0.2987 | 1.253 | LKIKDICPCLW [Compound 94, LKIKDI-LW, "-" represents cysteine-proline-cysteine]
0.2445 |  |  | KLIEDICPCQW [Compound 48, KLIEDI-QW, "-" represents cysteine-proline-cysteine]
0.2411 | 0.581 | 1.4 | KQIEDICPCLW [Compound 47, KQIEDI-LW, "-" represents cysteine-proline-cysteine]
1.238 |  |  | RLIESICPCLW [Compound 61, RLIESI-LW, "-" represents cysteine-proline-cysteine]
0.1632 | 0.1166 | 0.6826 | RIIEDICPCLW [Compound 40, RIIEDI-LW, "-" represents cysteine-proline-cysteine]
 | 0.2247 | 1.301 | RLISDICPCLW [Compound 98, RLISDI-LW, "-" represents cysteine-proline-cysteine]
 | 0.257 | 1.425 | KEIEDICPCLW [Compound 93, KEIEDI-LW, "-" represents cysteine-proline-cysteine]
0.1522 |  |  | RLIEDACPCLW [Compound 38, RLIEDA-LW, "-" represents cysteine-proline-cysteine]
0.3108 |  |  | RLIEDICPCVW [Compound 52, RLIEDI-VW, "-" represents cysteine-proline-cysteine]
 | 0.2479 | 0.8746 | REIEDICPCLW [Compound 96, REIEDI-LW, "-" represents cysteine-proline-cysteine]
 | 0.1395 | 1.19 | KLIVDICPCLW [Compound 95, KLIVDI-LW, "-" represents cysteine-proline-cysteine]

Binding, Exp 1 | Binding, Exp 2 | Bmax | Sequence
0.1701 |  |  | RLIEDICPCLV [Compound 43, RLIEDI-LV, "-" represents cysteine-proline-cysteine]
0.1651 |  |  | KLIEDICPCLQ [Compound 42, KLIEDI-LQ, "-" represents cysteine-proline-cysteine]
0.153 |  |  | KLIEDACPCLW [Compound 39, KLIEDA-LW, "-" represents cysteine-proline-cysteine]
0.3109 |  |  | KLIEYICPCLW [Compound 53, KLIEYI-LW, "-" represents cysteine-proline-cysteine]
0.7026 |  |  | RLIEEICPCLW [Compound 57, RLIEEI-LW, "-" represents cysteine-proline-cysteine]
6.227 |  |  | RLIEDICPCLK [Compound 66, RLIEDI-LK, "-" represents cysteine-proline-cysteine]
5.789 |  |  | RLIEDICPCLQ [Compound 65, RLIEDI-LQ, "-" represents cysteine-proline-cysteine]
0.2126 | 0.1074 | 1.077 | KLIADICPCLW [Compound 46, KLIADI-LW, "-" represents cysteine-proline-cysteine]
0.5209 |  |  | KLIEDQCPCLW [Compound 55, KLIEDQ-LW, "-" represents cysteine-proline-cysteine]
0.5311 |  |  | KLIEDVCPCLW [Compound 56, KLIEDV-LW, "-" represents cysteine-proline-cysteine]
0.1503 |  |  | RLIEVICPCLW [Compound 37, RLIEVI-LW, "-" represents cysteine-proline-cysteine]
0.1836 |  |  | KLIEDFCPCLW [Compound 44, KLIEDF-LW, "-" represents cysteine-proline-cysteine]
1.415 | 0.2342 | 0.8075 | KIIEDICPCLW [Compound 62, KIIEDI-LW, "-" represents cysteine-proline-cysteine]
0.3336 |  |  | RLIEDVCPCLW [Compound 54, RLIEDV-LW, "-" represents cysteine-proline-cysteine]
0.1237 |  |  | KLIDDICPCLW [Compound 34, KLIDDI-LW, "-" represents cysteine-proline-cysteine]
 | 0.1598 | 0.6151 | RTIEDICPCLW [Compound 99, RTIEDI-LW, "-" represents cysteine-proline-cysteine]
